Assay results from patent US12357652B2, “Formulations of phosphoramidate derivatives of nucleoside drugs” (priority 2015, dated 2025).
Like-named read-outs stand apart in the source and are kept apart here.

Assays:
[1] = Solubility of NUC-3373 in a range of pharmaceutically relevant solvents; format: physicochemical
Source text: The solubility of NUC-3373 (mixture of diastereoisomers) in a range of solvents is shown in […]

[2] = Stability of NUC-3373 aqueous infusion solution in 250 ml 0.9% saline bags; format: physicochemical
Experimental: The stability of the aqueous infusion solution was also evaluated using three different doses of NUC-3373 (1,000 mg, 2,000 mg and 3,000 mg) diluted in 250 ml 0.9% saline bags at two storage conditions (5° C. and 20° C.).

[3] = Alternative aqueous infusion solutions of NUC-3373 (osmolarity, stability); format: physicochemical
cancer models = conditions: versus 5-fluorouracil; cited from earlier work
[4] = 1,000 mg NUC-3373 in 250 ml 0.9% saline infusion bag, 0 hours, 5° C.
[5] = 1,000 mg NUC-3373 in 250 ml 0.9% saline infusion bag, 0 hours, 20° C.
[6] = 1,000 mg NUC-3373 in 250 ml 0.9% saline infusion bag, 8 hours, 5° C.
[7] = 1,000 mg NUC-3373 in 250 ml 0.9% saline infusion bag, 8 hours, 20° C.
[8] = 1,000 mg NUC-3373 in 250 ml 0.9% saline infusion bag, 24 hours, 5° C.
[9] = 1,000 mg NUC-3373 in 250 ml 0.9% saline infusion bag, 24 hours, 20° C.
[10] = 1,000 mg NUC-3373 in 250 ml 0.9% saline infusion bag, 48 hours, 5° C.
[11] = 1,000 mg NUC-3373 in 250 ml 0.9% saline infusion bag, 48 hours, 20° C.
[12] = 2,000 mg NUC-3373 in 250 ml 0.9% saline infusion bag, 0 hours, 5° C.
[13] = 2,000 mg NUC-3373 in 250 ml 0.9% saline infusion bag, 0 hours, 20° C.
[14] = 2,000 mg NUC-3373 in 250 ml 0.9% saline infusion bag, 8 hours, 5° C.
[15] = 2,000 mg NUC-3373 in 250 ml 0.9% saline infusion bag, 8 hours, 20° C.
[16] = 2,000 mg NUC-3373 in 250 ml 0.9% saline infusion bag, 24 hours, 5° C.
[17] = 2,000 mg NUC-3373 in 250 ml 0.9% saline infusion bag, 24 hours, 20° C.
[18] = 2,000 mg NUC-3373 in 250 ml 0.9% saline infusion bag, 48 hours, 5° C.
[19] = 2,000 mg NUC-3373 in 250 ml 0.9% saline infusion bag, 48 hours, 20° C.
[20] = 3,000 mg NUC-3373 in 250 ml 0.9% saline infusion bag, 0 hours, 5° C.
[21] = 3,000 mg NUC-3373 in 250 ml 0.9% saline infusion bag, 0 hours, 20° C.
[22] = 3,000 mg NUC-3373 in 250 ml 0.9% saline infusion bag, 8 hours, 5° C.
[23] = 3,000 mg NUC-3373 in 250 ml 0.9% saline infusion bag, 8 hours, 20° C.
[24] = 3,000 mg NUC-3373 in 250 ml 0.9% saline infusion bag, 24 hours, 5° C.
[25] = 3,000 mg NUC-3373 in 250 ml 0.9% saline infusion bag, 24 hours, 20° C.
[26] = 3,000 mg NUC-3373 in 250 ml 0.9% saline infusion bag, 48 hours, 5° C.
[27] = 3,000 mg NUC-3373 in 250 ml 0.9% saline infusion bag, 48 hours, 20° C.

Work on `C[C@H](NP(=O)(OC[C@H]1O[C@@H](n2cc(F)c(=O)[nH]c2=O)CC1O)Oc1cccc2ccccc12)C(=O)OCc1ccccc1` (stereo partly drawn) [NUC-3373, 5-fluoro-2′-deoxyuridine-5′-O-[1-naphthyl (benzoxy-L-alaninyl)] phosphate] yielded a Solubility ([1]; DMA, organic solvent or mixture, read-out: Solubility) of 950 mg/mL, a Solubility ([1]; DMSO, organic solvent or mixture, read-out: Solubility) of 948 mg/mL and a Solubility ([1]; NMP, organic solvent or mixture, read-out: Solubility) of 705 mg/mL. For the same molecule, the Solubility ([1]; PEG 400, organic solvent or mixture, read-out: Solubility) was 422 mg/mL, the Solubility ([1]; Water) was “extremely low” and the Solubility ([1]; ethanol, organic solvent or mixture, read-out: Solubility) was 778 mg/mL. The Solubility ([1]; propylene glycol, organic solvent or mixture, read-out: Solubility) was 449 mg/mL, the Solubility ([1]; water, read-out: Solubility) was under 2 mg/mL and the “Assay content NUC-3373” value [2, 4] was 3.7 mg/mL. For the same molecule, the Osmolarity [2, 4] was 457 mosm/L H20, the Purity [2, 4] was 96.2 % area and the “Total NUC-3373” value [2, 4] was 960.9 mg. For the same molecule, the pH [2, 4] was 5.5, the “Assay content NUC-3373” value [2, 5] was 3.9 mg/mL and the Osmolarity [2, 5] was 462 mosm/L H20. The Purity [2, 5] was 96.1 % area, the “Total NUC-3373” value [2, 5] was 1012.8 mg and the pH [2, 5] was 5.6. The “Assay content NUC-3373” value [2, 6] was 3.6 mg/mL, the Osmolarity [2, 6] was 450 mosm/L H20 and the Purity [2, 6] was 96.1 % area. For the same molecule, the “Total NUC-3373” value [2, 6] was 934.9 mg, the pH [2, 6] was 5.6 and the “Assay content NUC-3373” value [2, 7] was 3.7 mg/mL. For the same molecule, the Osmolarity [2, 7] was 459 mosm/L H20, the Purity [2, 7] was 96.1 % area and the “Total NUC-3373” value [2, 7] was 960.9 mg. For the same molecule, the pH [2, 7] was 5.5, the “Assay content NUC-3373” value [2, 8] was 3.6 mg/mL and the Osmolarity [2, 8] was 456 mosm/L H20. The Purity [2, 8] was 96.1 % area, the “Total NUC-3373” value [2, 8] was 934.9 mg and the pH [2, 8] was 5.6. For the same molecule, the “Assay content NUC-3373” value [2, 9] was 3.7 mg/mL, the Osmolarity [2, 9] was 462 mosm/L H20 and the Purity [2, 9] was 96.1 % area. The “Total NUC-3373” value [2, 9] was 960.9 mg, the pH [2, 9] was 5.8 and the “Assay content NUC-3373” value [2, 10] was 3.6 mg/mL. For the same molecule, the Osmolarity [2, 10] was 451 mosm/L H20, the Purity [2, 10] was 96.2 % area and the “Total NUC-3373” value [2, 10] was 934.9 mg. For the same molecule, the pH [2, 10] was 5.5, the “Assay content NUC-3373” value [2, 11] was 3.8 mg/mL and the Osmolarity [2, 11] was 455 mosm/L H20. The Purity [2, 11] was 96.1 % area, the “Total NUC-3373” value [2, 11] was 986.9 mg and the pH [2, 11] was 5.5. The “Assay content NUC-3373” value [2, 12] was 7.2 mg/mL, the Osmolarity [2, 12] was 639 mosm/L H20 and the Purity [2, 12] was 96.1 % area. For the same molecule, the “Total NUC-3373” value [2, 12] was 1946 mg, the pH [2, 12] was 5.5 and the “Assay content NUC-3373” value [2, 13] was 7.4 mg/mL. The Osmolarity [2, 13] was 646 mosm/L H20, the Purity [2, 13] was 96.1 % area and the “Total NUC-3373” value [2, 13] was 2000 mg. For the same molecule, the pH [2, 13] was 5.5, the “Assay content NUC-3373” value [2, 14] was 7.0 mg/mL and the Osmolarity [2, 14] was 637 mosm/L H20. The Purity [2, 14] was 96.2 % area, the “Total NUC-3373” value [2, 14] was 1892 mg and the pH [2, 14] was 5.5. For the same molecule, the “Assay content NUC-3373” value [2, 15] was 7.5 mg/mL, the Osmolarity [2, 15] was 633 mosm/L H20 and the Purity [2, 15] was 96.1 % area. For the same molecule, the “Total NUC-3373” value [2, 15] was 2027 mg, the pH [2, 15] was 5.5 and the “Assay content NUC-3373” value [2, 16] was 6.9 mg/mL. The Osmolarity [2, 16] was 638 mosm/L H20, the Purity [2, 16] was 96.1 % area and the “Total NUC-3373” value [2, 16] was 1865 mg. The pH [2, 16] was 5.5, the “Assay content NUC-3373” value [2, 17] was 7.2 mg/mL and the Osmolarity [2, 17] was 639 mosm/L H20. The Purity [2, 17] was 96.1 % area, the “Total NUC-3373” value [2, 17] was 1946 mg and the pH [2, 17] was 5.5. The “Assay content NUC-3373” value [2, 18] was 7.0 mg/mL, the Osmolarity [2, 18] was 635 mosm/L H20 and the Purity [2, 18] was 96.1 % area. For the same molecule, the “Total NUC-3373” value [2, 18] was 1892 mg, the pH [2, 18] was 5.4 and the “Assay content NUC-3373” value [2, 19] was 7.1 mg/mL. For the same molecule, the Osmolarity [2, 19] was 632 mosm/L H20, the Purity [2, 19] was 96.1 % area and the “Total NUC-3373” value [2, 19] was 1919 mg. For the same molecule, the pH [2, 19] was 5.4, the “Assay content NUC-3373” value [2, 20] was 10.2 mg/mL and the Osmolarity [2, 20] was 831 mosm/L H20. For the same molecule, the Purity [2, 20] was 96.1 % area, the “Total NUC-3373” value [2, 20] was 2857 mg and the pH [2, 20] was 5.5. For the same molecule, the “Assay content NUC-3373” value [2, 21] was 10.4 mg/mL, the Osmolarity [2, 21] was 818 mosm/L H20 and the Purity [2, 21] was 96.1 % area. For the same molecule, the “Total NUC-3373” value [2, 21] was 2913 mg, the pH [2, 21] was 5.5 and the “Assay content NUC-3373” value [2, 22] was 10.4 mg/mL. The Osmolarity [2, 22] was 823 mosm/L H20, the Purity [2, 22] was 96.2 % area and the “Total NUC-3373” value [2, 22] was 2913 mg. For the same molecule, the pH [2, 22] was 5.5, the “Assay content NUC-3373” value [2, 23] was 10.5 mg/mL and the Osmolarity [2, 23] was 812 mosm/L H20. For the same molecule, the Purity [2, 23] was 96.1 % area, the “Total NUC-3373” value [2, 23] was 2941 mg and the pH [2, 23] was 5.5. For the same molecule, the “Assay content NUC-3373” value [2, 24] was 10.1 mg/mL, the Osmolarity [2, 24] was 825 mosm/L H20 and the Purity [2, 24] was 96.1 % area. For the same molecule, the “Total NUC-3373” value [2, 24] was 2829 mg, the pH [2, 24] was 5.5 and the “Assay content NUC-3373” value [2, 25] was 10.4 mg/mL. For the same molecule, the Osmolarity [2, 25] was 817 mosm/L H20, the Purity [2, 25] was 96.1 % area and the “Total NUC-3373” value [2, 25] was 2913 mg. The pH [2, 25] was 5.5, the “Assay content NUC-3373” value [2, 26] was 10.0 mg/mL and the Osmolarity [2, 26] was 821 mosm/L H20. For the same molecule, the Purity [2, 26] was 96.2 % area, the “Total NUC-3373” value [2, 26] was 2801 mg and the pH [2, 26] was 5.6. The “Assay content NUC-3373” value [2, 27] was 10.1 mg/mL, the Osmolarity [2, 27] was 812 mosm/L H20 and the Purity [2, 27] was 96.1 % area. The “Total NUC-3373” value [2, 27] was 2829 mg, the pH [2, 27] was 5.4 and the Stability ([2]; aqueous infusion solutions at all dose strengths (1,000 mg, 2,000 mg, 3,000 mg in 250 ml 0.9% saline), up to 48 hours at 5° C. and 20° C.) was “stable”. For the same molecule, the Osmolarity ([3]; high dose (3,000 mg) NUC-3373 in 500 ml 0.9% saline infusion bag) was 524 mosm/1, the Osmolarity ([3]; high dose NUC-3373 (10 mg/ml) using 0.45% saline) was 715 mosm/l H2O and the Osmolarity ([3]; high dose NUC-3373 (10 mg/ml) using WFI) was 557 mosm/l H2O. The Osmolarity ([3]; high dose NUC-3373 (10 mg/ml; 3,000 mg) in 250 ml 0.9% saline) was 812 mosm/1 and the Activity in vitro (cancer models) was “outstanding and far superior to the results obtained with 5-fluorouracil”.
